This is an account of results in patent US20100190747A1, “Fused ring compound and use thereof” (priority 2009, published 2010).

One test addresses T1, delta-5-desaturase (Rattus norvegicus, UniProt Q920R3).
T1 construct: the microsomal fraction of a rat river (10 μl), which had been diluted to 3 mg/ml; from tissue; host or cells: rat liver microsomal fraction
As to the kind of experiment: Inhibitory activity on delta-5-desaturase (rat liver microsomal fraction, 14C-eicosatrienoic acid, TLC). The test is classed as biochemical. Particulars: test compound at 10 μM, room temperature, 120 minutes. In outline:
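Rat liver microsomes (3 mg/ml before addition) incubated with test compound at 10 μM, NADH, ATP, CoA and 14C-eicosatrienoic acid in phosphate buffer pH 7.4 with BSA and glutathione, 120 min at room temperature. Lipids saponified, extracted, separated by reverse-phase TLC and imaged; % inhibition reported.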

For test [1], the system named is atherogenic diet fed apoE-deficient mice. As to the kind of experiment: Anti-atherosclerotic and anti-obesity effects in atherogenic diet fed apoE-deficient mice. The format is in vivo. To be noted: 10 mg/kg/day p.o. for 15 weeks, male apoE-deficient mice on high fat diet, vehicle group taken as 100%; for Reduction in atherosclerotic lesion area (%): aorta, oil red O staining. As for the experimental part: Assessments of anti-atherosclerotic effects and anti-obesity effects on atherogenic diet fed apoE-deficient mice were performed by the method described below.
Male apoE-deficient mice of 11-13 week-age (Jacson Lab) conditioned with ordinary diet (Research Diet) in separate cages were allowed to take high fat diet (Research Diet) at libitum for 14 weeks to thereby form atherosclerotic lesions in the aorta. The test compound suspended in 0.5% methyl cellulose solution was forcedly and orally administered to the mice at 10 ml/kg everyday for 15 weeks from 1 week prior to the start of the high fat diet feeding. Body weights were measured on the day of autopsy. The body weight reduction ratio of test compound-administered group was calculated taking the body weight of vehicle-administered group as 100%, to thereby obtain an index for anti-obesity effects. The aorta (from immediately above the aortic valve to the ventral branch of common iliac artery) removed under anesthesia was totally incised after removal of adipose tissue, etc. adhering to the outer membrane of the aorta, to thereby prepare an incised aorta specimen. After formalin fixing, the incised aorta specimen was subjected to staining with oil red O. The thus stained incised aorta specimen was photographed with a digital camera. Subsequently, image analysis using Image Pro program (Planetron, Inc.) was performed to determine the area of atherosclerotic lesions stained red and the total area of the incised specimen (the area of vascular inner wall). The ratio of atherosclerotic lesions (%) was calculated by dividing the area of atherosclerotic lesions by the area of vascular inner wall. The reduction ratio of the atherosclerotic lesion area (%) in test compound-administered group was calculated taking the area of atherosclerotic lesions in vehicle-administered group as 100%, to thereby obtain an index for anti-atherosclerotic effects. All the measurement of the ratio of atherosclerotic lesions was performed in a blind fashion.

The test system of a further test is ob/ob mice. As to the kind of experiment: Anti-diabetic effects in ob/ob mice, a type 2 diabetic model. The format is in vivo. To be noted: 10 mg/kg/day p.o. once a day for 6 weeks; male ob/ob mice; vehicle group 7.1%. As for the experimental part: Anti-diabetic effects in ob/ob mice, a type 2 diabetic model were evaluated as describe next.
Male 9-week-old ob/ob mice (Charls river) habituated for a week were housed individually and freely fed a normal chow (CE-2, Japan Clea). The test compound was suspended in 0.5% methylcellulose solution. Vehicle (0.5% methylcellulose) or the compound was orally administered (5 mL/kg) once a day for 6 weeks. At the end of the treatment, bloods were collected from tail vein. The levels of glycosylated hemoglobin were measured as an index of diabetes severity using automated GHb analyzer (TOSOH Corporation).

T1 sequence (Q920R3 whole entry): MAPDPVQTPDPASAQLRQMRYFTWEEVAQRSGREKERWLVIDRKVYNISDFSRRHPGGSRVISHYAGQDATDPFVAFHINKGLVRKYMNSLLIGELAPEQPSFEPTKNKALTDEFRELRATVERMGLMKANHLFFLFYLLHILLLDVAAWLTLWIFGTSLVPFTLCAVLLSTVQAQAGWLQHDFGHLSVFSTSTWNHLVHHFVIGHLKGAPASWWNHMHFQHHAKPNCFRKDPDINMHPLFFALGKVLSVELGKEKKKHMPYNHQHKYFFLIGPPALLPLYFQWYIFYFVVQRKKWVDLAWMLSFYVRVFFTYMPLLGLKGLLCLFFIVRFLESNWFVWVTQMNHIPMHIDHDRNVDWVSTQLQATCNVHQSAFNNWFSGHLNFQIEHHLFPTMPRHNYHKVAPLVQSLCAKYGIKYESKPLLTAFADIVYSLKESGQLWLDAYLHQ

With `O=C1Cc2c(nc(OCC(F)(F)F)n(-c3ccc(OCC(F)(F)F)cc3)c2=O)N1` [Example 274, 2-(2,2,2-Trifluoroethoxy)-3-[4-(2,2,2-trifluoroethoxy)phenyl]-5,7-dihydro-3H-pyrrolo[2,3-d]pyrimidine-4,6-dione], the inhibition at 10 µM at delta-5-desaturase amounted to 100%. Further, in test [1], the “Reduction in atherosclerotic lesion area (%)” value amounted to 26% and the “Reduction in body weight (%)” value is given as 8%. For `O=C1Cc2c(nc(SCC3CC3)n(-c3ccc(OCC(F)(F)F)cc3)c2=O)N1` [Example 297, 2-[(Cyclopropylmethyl)sulfanyl]-3-[4-(2,2,2-trifluoroethoxy)phenyl]-5,7-dihydro-3H-pyrrolo[2,3-d]pyrimidine-4,6-dione], in that order: 101%, 26% and 8%. In the case of `N#CCSc1nc2c(c(=O)n1-c1ccc(OCC(F)(F)F)cc1)CC(=O)N2` [Example 312, ({4,6-Dioxo-3-[4-(2,2,2-trifluoroethoxy)phenyl]-4,5,6,7-tetrahydro-3H-pyrrolo[2,3-d]pyrimidin-2-yl}sulfanyl)acetonitrile], the inhibition at 10 µM at delta-5-desaturase stood at 97%.

Consider `CC(C)CSc1nc2c(c(=O)n1-c1ccc(OCC(F)(F)F)cc1)CC(=O)N2` [Example 313, 2-[(2-Methylpropyl)sulfanyl]-3-[4-(2,2,2-trifluoroethoxy)phenyl]-5,7-dihydro-3H-pyrrolo[2,3-d]pyrimidine-4,6-dione], for which, on delta-5-desaturase, the inhibition at 10 µM is 102%.

With `CC(C)(O)CSc1nc2c(c(=O)n1-c1ccc(OCC(F)(F)F)cc1)CC(=O)N2` [Example 315, 2-[(2-Hydroxy-2-methylpropyl)sulfanyl]-3-[4-(2,2,2-trifluoroethoxy)phenyl]-5,7-dihydro-3H-pyrrolo[2,3-d]pyrimidine-4,6-dione], at delta-5-desaturase, the inhibition at 10 µM was 99%.

For the molecule `CC(C)Oc1nc2[nH]ccc2c(=O)n1-c1ccc(OCC(F)(F)F)c(F)c1` [Example 316, 3-[3-Fluoro-4-(2,2,2-trifluoroethoxy)phenyl]-2-(1-methylethoxy)-3,7-dihydro-4H-pyrrolo[2,3-d]pyrimidin-4-one], the inhibition at 10 µM against delta-5-desaturase is 103%. On to `CC(C)COc1nc2c(c(=O)n1-c1ccc(OCC(F)(F)F)cc1)CC(=O)N2` [Example 318, 2-(2-Methylpropoxy)-3-[4-(2,2,2-trifluoroethoxy)phenyl]-5,7-dihydro-3H-pyrrolo[2,3-d]pyrimidine-4,6-dione], for which the inhibition at 10 µM against delta-5-desaturase came out at 103%.

Regarding `O=C1Cc2c(nc(OCCC3CC3)n(-c3ccc(OCC(F)(F)F)cc3)c2=O)N1` [Example 319, 2-(2-Cyclopropylethoxy)-3-[4-(2,2,2-trifluoroethoxy)phenyl]-5,7-dihydro-3H-pyrrolo[2,3-d]pyrimidine-4,6-dione], the inhibition at 10 µM against delta-5-desaturase is 104%.

As to `O=C1Cc2c(nc(SCC3CC3)n(-c3ccc(OCC(F)(F)F)c(F)c3)c2=O)N1` [Example 322, 2-[(Cyclopropylmethyl)sulfanyl]-3-[3-fluoro-4-(2,2,2-trifluoroethoxy)phenyl]-5,7-dihydro-3H-pyrrolo[2,3-d]pyrimidine-4,6-dione], the inhibition at 10 µM against delta-5-desaturase amounted to 101%. Same read-out and setting: then `O=C1Cc2c(nc(SCC3CC3)n(-c3ccc(OCC(F)(F)C(F)(F)F)cc3)c2=O)N1` [Example 323, 2-[(Cyclopropylmethyl)sulfanyl]-3-[4-(2,2,3,3,3-pentafluoropropoxy)phenyl]-5,7-dihydro-3H-pyrrolo[2,3-d]pyrimidine-4,6-dione], with 102%; and `CC(C)Sc1nc2c(c(=O)n1-c1ccc(OCC(F)(F)C(F)(F)F)cc1)CC(=O)N2` [Example 324, 2-[(1-Methylethyl)sulfanyl]-3-[4-(2,2,3,3,3-pentafluoropropoxy)phenyl]-5,7-dihydro-3H-pyrrolo[2,3-d]pyrimidine-4,6-dione], with 101%; and `COCCSc1nc2c(c(=O)n1-c1ccc(OCC(F)(F)F)cc1)CC(=O)N2` [Example 325, 2-[(2-Methoxyethyl)sulfanyl]-3-[4-(2,2,2-trifluoroethoxy)phenyl]-5,7-dihydro-3H-pyrrolo[2,3-d]pyrimidine-4,6-dione], with 105%. Turning to `O=C1Cc2c(nc(OCC(F)(F)C(F)(F)F)n(-c3ccc(OCC(F)(F)F)cc3)c2=O)N1` [Example 326, 2-(2,2,3,3,3-Pentafluoropropoxy)-3-[4-(2,2,2-trifluoroethoxy)phenyl]-5,7-dihydro-3H-pyrrolo[2,3-d]pyrimidine-4,6-dione], at delta-5-desaturase, the inhibition at 10 µM came to 102%. Moreover, in test [1], the “Reduction in atherosclerotic lesion area (%)” value turned out to be 41% and the “Reduction in body weight (%)” value amounted to 11%. Further, the “Glycosylated hemoglobin (%)” value with ob/ob mice was 6.0%. Turning to `N#CCCNC(=O)CSc1nc2c(c(=O)n1-c1ccc(OCC(F)(F)F)cc1)CC(=O)N2` [Example 328, N-(2-cyanoethyl)-2-({4,6-dioxo-3-[4-(2,2,2-trifluoroethoxy)phenyl]-4,5,6,7-tetrahydro-3H-pyrrolo[2,3-d]pyrimidin-2-yl}sulfanyl)acetamide], the inhibition at 10 µM against delta-5-desaturase was found to be 97%.

Turning to `O=C1Cc2c(nc(SCCC3CC3)n(-c3ccc(OCC(F)(F)F)cc3)c2=O)N1` [Example 329, 2-[(2-Cyclopropylethyl)sulfanyl]-3-[4-(2,2,2-trifluoroethoxy)phenyl]-5,7-dihydro-3H-pyrrolo[2,3-d]pyrimidine-4,6-dione], at delta-5-desaturase, the inhibition at 10 µM was found to be 101%. Same read-out and setting: the figure for `O=C1Cc2c(nc(Sc3ccc(F)cc3)n(-c3ccc(OCC(F)(F)F)cc3)c2=O)N1` [Example 336, 2-[(4-Fluorophenyl)sulfanyl]-3-[4-(2,2,2-trifluoroethoxy)phenyl]-5,7-dihydro-3H-pyrrolo[2,3-d]pyrimidine-4,6-dione] is 101%; for `O=C1Cc2c(nc(OC(CF)CF)n(-c3ccc(OCC(F)(F)F)cc3)c2=O)N1` [Example 338, 2-[2-Fluoro-1-(fluoromethyl)ethoxy]-3-[4-(2,2,2-trifluoroethoxy)phenyl]-5,7-dihydro-3H-pyrrolo[2,3-d]pyrimidine-4,6-dione] it is 100%.

`N#CC1(CSc2nc3c(c(=O)n2-c2ccc(OCC(F)(F)F)cc2)CC(=O)N3)CC1` [Example 339, 1-[({4,6-Dioxo-3-[4-(2,2,2-trifluoroethoxy)phenyl]-4,5,6,7-tetrahydro-3H-pyrrolo[2,3-d]pyrimidin-2-yl}sulfanyl)methyl]cyclopropanecarbonitrile]: on delta-5-desaturase, the inhibition at 10 µM amounted to 100%. The same measure, in the same setting: the figure for `CCC(CC)Sc1nc2c(c(=O)n1-c1ccc(OCC(F)(F)F)cc1)CC(=O)N2` [Example 340, 2-[(1-Ethylpropyl)sulfanyl]-3-[4-(2,2,2-trifluoroethoxy)phenyl]-5,7-dihydro-3H-pyrrolo[2,3-d]pyrimidine-4,6-dione] is 101%; for `O=C1Cc2c(nc(OCCC(F)(F)F)n(-c3ccc(OCC(F)(F)F)cc3)c2=O)N1` [Example 341, 3-[4-(2,2,2-Trifluoroethoxy)phenyl]-2-(3,3,3-trifluoropropoxy)-5,7-dihydro-3H-pyrrolo[2,3-d]pyrimidine-4,6-dione] it is 99%; for `O=C1Cc2c(nc(SCC(F)(F)F)n(-c3ccc(OCC(F)(F)C(F)(F)F)cc3)c2=O)N1` [Example 347, 3-[4-(2,2,3,3,3-Pentafluoropropoxy)phenyl]-2-[(2,2,2-trifluoroethyl)sulfanyl]-5,7-dihydro-3H-pyrrolo[2,3-d]pyrimidine-4,6-dione] it is 100%.
